Measurements from patent US8338472B2, “Hexahydrocyclopentyl[F]indazole carboxamides and derivatives thereof as selective glucocorticoid receptor modulators” (Merck Sharp & Dohme Corp., priority 2008, dated 2012).
Where two headings read alike, the source gives them in different places.

Legend:
human GR = molecular target: T1, human GR (Homo sapiens, UniProt P04150); assay: Transrepression Assay (GITAR), TNFα-β-lactamase reporter gene in U937 cells; type: cell-based; details: for GITAR Greater than by GRAMMER % SEP: GITAR Emax minus GRAMMER Emax; for EC50: inflection point, U937 cells, read-out: Transrepression U937 Cells GITAR IP
T1 construct: U937 cells contain an endogenous glucocorticoid receptor (GR); endogenous in cells; host or cells: U937 cells stably transfected with the TNF-alpha promoter/beta-lactamase reporter
T1 sequence (P04150 1-777): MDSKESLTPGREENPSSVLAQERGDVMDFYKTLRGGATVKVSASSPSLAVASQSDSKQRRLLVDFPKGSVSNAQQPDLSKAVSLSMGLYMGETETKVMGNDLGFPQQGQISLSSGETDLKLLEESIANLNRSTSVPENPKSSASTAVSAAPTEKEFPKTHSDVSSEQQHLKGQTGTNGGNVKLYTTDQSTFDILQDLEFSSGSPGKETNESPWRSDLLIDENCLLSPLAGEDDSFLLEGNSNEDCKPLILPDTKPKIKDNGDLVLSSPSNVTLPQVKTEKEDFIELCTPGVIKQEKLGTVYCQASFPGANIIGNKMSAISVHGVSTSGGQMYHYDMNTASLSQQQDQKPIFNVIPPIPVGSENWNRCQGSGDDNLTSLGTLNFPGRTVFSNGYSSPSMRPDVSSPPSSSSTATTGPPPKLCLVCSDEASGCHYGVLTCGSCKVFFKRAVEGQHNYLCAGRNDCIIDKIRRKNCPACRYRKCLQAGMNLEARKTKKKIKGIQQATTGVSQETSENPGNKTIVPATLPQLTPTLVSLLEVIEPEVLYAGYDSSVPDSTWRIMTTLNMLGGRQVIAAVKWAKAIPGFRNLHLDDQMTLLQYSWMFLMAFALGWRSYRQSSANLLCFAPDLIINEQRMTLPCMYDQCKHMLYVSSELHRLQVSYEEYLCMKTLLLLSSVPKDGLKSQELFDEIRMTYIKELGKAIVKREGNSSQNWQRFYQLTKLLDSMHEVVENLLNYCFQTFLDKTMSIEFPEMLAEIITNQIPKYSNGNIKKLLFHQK
Text: Transrepression Assay (GITAR)
This assay assesses the ability of test compounds to control transcription from the TNFα-β-lactamase reporter gene in U937 cells, a human myelomonocytic leukemia cell line that naturally expresses the human GR. The assay measures compound dependent-repression of the TNFa promoter linked to a reporter gene.
The human U937 cells that had been stablely transfected with the TNF-α promoter driving β-lactamase are used for this assay. U937 cells contain an endogenous glucocorticoid receptor (GR). Cells are maintained in RPMI 1640 Growth medium (Gibco Cat#11875-093) containing 25 mM HEPES, 10% FBS, 2 mM L-Glutamine, 1 mM Sodium pyruvate, 25 μg/ml Gentamicin (Gibco Cat#15710-064), 1:1000 2-Mercaptoethanol (Gibco Cat#21985-023) and 0.8 mg/ml G418 (Gibco Cat#10131-027). The density of the cells in the flask needs to be about 1×10^6−3×10^6/ml at the time of harvest. Usually, the cells are split to 1.2˜1.4×10^5/ml (1:10) 3 days prior to the assay. 50,000 cells/well are plated in 96 well black-walled plates the day of assay. Test compounds are added 10 pt/well, and cells are incubated at 37° C. for 30-45 min. For assaying compounds, first dilute 1:10 in DMSO to make 1 mM, then further dilute 1:100 in medium to make 10× stock prior to adding to the cells. Add 50 ng/ml PMA (Sigma, cat# P8139) 10 μL/well to a final concentration 5 ng/ml, and 1 μg/ml LPS (Sigma, cat# L4130) 10 μL/well to a final concentration 100 ng/ml. Incubate cells at 37° C. overnight for ˜18 hr. PMA is stored frozen as 100 μg/ml stock in DMSO. Dilute 1:10 in DMSO for a working stock of 10 μg/ml and store at −20C. For assaying, dilute the […] working stock 1:200 in medium to make a 10× solution (50 ng/ml). Store frozen LPS at 1 mg/ml in PBS, dilute 1:1000 in medium to make 10× (1 μg/ml) for the assay. Add 6× loading buffer (CCF2−AM) 20 μL/well, and incubate at room temperature for 70-90 min. […] The activity repressed by 100 nM dexamethasone alone is set as 100% activity.

Glucocorticoid Receptor = molecular target: T2, Glucocorticoid Receptor (Homo sapiens, UniProt P04150); assay: Trans-Activation Modulation of Glucocorticoid Receptor (GRAMMER), MMTV-LUC reporter gene in A549 cells; type: cell-based; details: Table 1; for Emax: A549, A549 cells, Emax relative to 300 nM dexamethasone, read-out: Transactivation A549 Cells GRAMMER Emax; for EC50: inflection point, A549 cells, read-out: Transactivation A549 Cells GRAMMER IP
T2 construct: These cells express large amount of the GR and are very responsive to GC treatment; endogenous in cells; host or cells: A549 cells transiently transfected with the MMTV-LUC reporter
T2 sequence (P04150 1-777): T1 sequence (P04150 1-777)
Text: Trans-Activation Modulation of Glucocorticoid Receptor (GRAMMER)
This assay assesses the ability of test compounds to control transcription from the MMTV-LUC reporter gene in lung adenocarcinoma A549 cells or MDA-MB-453 cells, a human breast cancer cell line that naturally expresses the human GR. The assay measures induction of a modified MMTV LTR/promoter linked to the LUC reporter gene.
The routine transient assay consists of plating 7,000-25,000 cells/well of a white, clear-bottom 96-well plate. Alternatively, 384-well plates can be used at a cell concentration of 10,000/well. The media that the cells are plated in is “exponential growth medium” which consists of phenol red-free RPMI1640 containing 10% FBS, 4 mM L-glutamine, 20 mM HEPES, 10 ug/mL human insulin, and 20 ug/mL gentamicin. Incubator conditions are 37° C. and 5% CO2. The transfection is done in batch mode. The cells are trypsinized and counted to the right cell number in the proper amount of fresh media. It is then gently mixed with the FuGene6/DNA mix and plated onto the 96 or 384-well plate, all the wells receive 100 uL or 40 uL, respectively, of medium+lipid/DNA complex then incubated 37° C. overnight. The transfection cocktail consists of serum-free OptiMEM, FuGene6 reagent and DNA. The manufacturer's (Roche Biochemical) protocol for cocktail setup is as follows: The lipid to DNA ratio is approximately 2.5:1 and the incubation time is 20 min at room temperature. Sixteen to 24 hours after transfection, the cells are treated with dexamethasone to a final concentration of 10 nM as well as the compound of interest, such that final DMSO (vehicle) concentration is equal to or less than 1%. Each plate also contains samples that are treated with 10 nM dexamethasone alone, which is used as the 100% activity control. The cells are exposed to the compounds for 24 hours. After 24 hours, the cells are lysed by a Promega cell culture lysis buffer for approximately 30 min and then the luciferase activity in the extracts is assayed in the 96-well format luminometer. In 384-well format, Steady-Glo (Promega) or Steady-Lite (PerkinElmer) can be used by adding an equal volume of reagent to the media present in each well. Activity induced by 10 nM dexamethasone alone is set at 100% activity. Antagonist activity is calculated by determining the decrease in dexamethasone-induced activity in response to compound treatment relative to samples that were treated with dexamethasone alone. […] This transactivation assay can be performed in an agonist and antagonist mode to identify these different activities.
Activity of test compounds is calculated as the Emax relative to the activity obtained with 300 nM dexamethasone. Activity of test compounds is calculated as the Emax relative to the activity obtained with 300 nM DEX. […] The action of compounds is also tested in an antagonist mode (Anti-GRAMMER) in which the cells are treated with medium containing an agonist such as 10 nM DEX and the ability to agents to inhibit the activation by an agonist is measured.

[1] = molecular target: T3, glucocorticoid receptor (GR) (Homo sapiens, UniProt P04150); assay: Ligand binding assay (GR BIND), 3H-dexamethasone displacement in MDA-MB-453 cell lysate; details: GR BIND Ki, Table 1
T3 sequence (P04150 1-777): T1 sequence (P04150 1-777)

[2] = U-937, U937 cells, activity repressed by 100 nM dexamethasone = 100%, Table 1, read-out: Transrepression U937 Cells GITAR Emax
[3] = U-937, text statement, 100 nM dexamethasone = 100%, read-out: maximal activity in the transrepression assay (GITAR)

GITAR Greater than by GRAMMER % SEP (human GR; Table 1) [%]	Emax (human GR; [2]) [%]	Emax (human GR; [3]) [%]	EC50 (human GR; Table 1) [nM]	Emax (Glucocorticoid Receptor) [%]	EC50 (Glucocorticoid Receptor) [nM]	Ki [1] [nM]	Compound
7.4	11	> 5	693	3.6	1.3	3.1	C[C@]12Cc3cnn(-c4ccc(F)cc4)c3C=C1CC[C@@H]2C(=O)N1CCCC(CCc2ccccc2)C1 (stereo partly drawn) [Compound 20, (4αR,5S)-1-(4-fluorophenyl)-4α-methyl-5-{[3-(2-phenylethyl)piperidin-1-yl]carbonyl}-1,4,4α,5,6,7-hexahydrocyclopenta[f]indazole]
1.9	28.1	> 5	742	26.2	569	2.3	C[C@]12Cc3cnn(-c4ccc(F)cc4)c3C=C1CC[C@@H]2C(=O)N1CCCC(Cc2cccc(C(F)(F)F)c2)C1 (stereo partly drawn) [Compound 21, (4αR,5S)-1-(4-fluorophenyl)-4α-methyl-5-({3-[3-(trifluoromethyl)benzyl]piperidin-1-yl}carbonyl)-1,4,4α,5,6,7-hexahydrocyclopenta[f]indazole]
11.7	17.3	> 5	1970	5.5	386	4.8	C[C@]12Cc3cnn(-c4ccc(F)cc4)c3C=C1CC[C@@H]2C(=O)N1CCCCC1Cc1ccccc1 (stereo partly drawn) [Compound 22, (4αR,5S)-5-[(2-benzylpiperidin-1-yl)carbonyl]-1-(4-fluorophenyl)-4α-methyl-1,4,4α,5,6,7-hexahydrocyclopenta[f]indazole]
14.2	18	> 5	1700	3.8	45.4	19.4	C[C@]12Cc3cnn(-c4ccc(F)cc4)c3C=C1CC[C@@H]2C(=O)Nc1ccccc1S(N)(=O)=O [Compound 23, (4αR,5S)-N-[2-(aminosulfonyl)phenyl]-1-(4-fluorophenyl)-4α-methyl-1,4,4α,5,6,7-hexahydrocyclopenta[f]indazole-5-carboxamide]
5.3	14.5	> 5	405	9.2	615	4.7	CCNC(=O)CN(CCc1ccccc1)C(=O)[C@H]1CCC2=Cc3c(cnn3-c3ccc(F)cc3)C[C@@]21C [Compound 24, (4αR,5S)-N-[2-(ethylamino)-2-oxoethyl]-1-(4-fluorophenyl)-4α-methyl-N-(2-phenylethyl)-1,4,4α,5,6,7-hexahydrocyclopenta[f]indazole-5-carboxanide]
38.7	48	> 5	2740	9.3	1440	12.5	C[C@]12Cc3cnn(-c4ccc(F)cc4)c3C=C1CC[C@@H]2C(=O)N(CCO)Cc1ccccc1F [Compound 25, (4α,5S)-N-(2-fluorobenzyl)-1-(4-fluorophenyl)-N-(2-hydroxyethyl)-4α-methyl-1,4,4α,5,6,7-hexahydrocyclopenta[f]indazole-5-carboxamide]
44.1	83.4	> 5	809	39.3	812	16.4	CCCCN(CCO)C(=O)[C@H]1CCC2=Cc3c(cnn3-c3ccc(F)cc3)C[C@@]21C [Compound 26, (4αR,5S)-N-butyl-1-(4-fluorophenyl)-N-(2-hydroxyethyl)-4α-methyl-1,4,4α,5,6,7-hexahydrocyclopenta[f]indazole-5-carboxamide]
45.6	55.8	> 5	1620	10.2	2160	13.9	Cc1ccc(CN(CCO)C(=O)[C@H]2CCC3=Cc4c(cnn4-c4ccc(F)cc4)C[C@@]32C)cc1F [Compound 27, (4αR,5S)-N-(3-fluoro-4-methylbenzyl)-1-(4-fluorophenyl)-N-(2-hydroxyethyl)-4α-methyl-1,4,4α,5,6,7-hexahydrocyclopenta[f]indazole-5-carboxamide]
